Where “and” joins values, the source holds several entries; their conditions need not be identical. Identical values can stand only once.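 Cells were grown in 96-well plates and exposed to each compound for 48 hours at five concentrations; endpoints were interpolated linearly between bracketing concentrations, or set to the highest concentration if not reached. At the GI50, growth is halved.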 Calls of active or inactive are those of the source. Cut-off read from the data, not from the text of the source: active = GI50 up to about 1.1 µM and inactive = higher. Starred links: 1 amine or outer side, 2 acyl side, 3 side chain; linkers in the order of their positions; H or OH if unused. Positions of bridges follow the written chain, without caps; N, C: chain ends. Non-standard residues stand in square brackets, D forms with d. Residues, ends and D or L forms follow the SMILES beside them. Chains are numbered I, II in the order given. Actinocin(9to1) = Cc1c2oc3c(C)ccc(C(=O)[*:1])c3nc-2c(C(=O)[*:2])c(N)c1=O; NMeT = CN[CH](C(=O)O)[CH](C)O; Sar = CNCC(=O)O
Key:
Experiment in all cases: DTP human tumour cell line panel, 48 h
786-0 = system: 786-0
A498 = system: A498
A549 = system: A549
ACHN = system: ACHN
CCRF-CEM = system: CCRF-CEM
COLO 205 = system: COLO 205
DU-145 = system: DU-145
EKVX = system: EKVX
HCT-116 = system: HCT-116
HCT-15 = system: HCT-15
HOP-62 = system: HOP-62
HT-29 = system: HT-29
Hs-578T = system: Hs-578T
IGROV-1 = system: IGROV-1
K562 = system: K562
KM12 = system: KM12
LOX IMVI = system: LOX IMVI
M14 = system: M14
MCF7 = system: MCF7
MDA-MB-231 = system: MDA-MB-231
MDA-MB-435 = system: MDA-MB-435
MDA-N = system: MDA-N
MOLT-4 = system: MOLT-4
Malme-3M = system: Malme-3M
NCI-H226 = system: NCI-H226
NCI-H23 = system: NCI-H23
NCI/ADR-RES = system: NCI/ADR-RES
OVCAR-3 = system: OVCAR-3
OVCAR-4 = system: OVCAR-4
OVCAR-5 = system: OVCAR-5
OVCAR-8 = system: OVCAR-8
PC-3 = system: PC-3
RPMI-8226 = system: RPMI-8226
SF-268 = system: SF-268
SF-295 = system: SF-295
SK-MEL-28 = system: SK-MEL-28
SK-MEL-2 = system: SK-MEL-2
SK-MEL-5 = system: SK-MEL-5
SK-OV-3 = system: SK-OV-3
SN12C = system: SN12C
SNB-19 = system: SNB-19
SNB-75 = system: SNB-75
SR = system: SR
SW-620 = system: SW-620
TK-10 = system: TK-10
U-251 = system: U-251
UACC-257 = system: UACC-257
UACC-62 = system: UACC-62
UO-31 = system: UO-31
HOP-92 = system: HOP-92
NCI-H460 = system: NCI-H460
NCI-H522 = system: NCI-H522
RXF 393 = system: RXF 393
SF-539 = system: SF-539
CAKI-1 = system: CAKI-1
HCC 2998 = system: HCC 2998

C=C[C@@H]1OC(=O)O[C@H]1CO
GI50 (786-0): > 100000 nM (inactive)
GI50 (A498): > 100000 nM (inactive)
GI50 (A549): > 100000 nM (inactive)
GI50 (ACHN): > 100000 nM (inactive)
GI50 (CCRF-CEM): > 100 µM (inactive)
GI50 (COLO 205): > 100000 nM (inactive)
GI50 (DU-145): > 100000 nM (inactive)
GI50 (EKVX): > 100000 nM (inactive)
GI50 (HCT-116): > 100 µM (inactive)
GI50 (HCT-15): > 100000 nM
GI50 (HOP-62): > 100 µM (inactive)
GI50 (HT-29): > 100000 nM (inactive)
GI50 (Hs-578T): > 100000 nM (inactive)
GI50 (IGROV-1): > 100 µM (inactive)
GI50 (K562): > 100000 nM (inactive)
GI50 (KM12): > 100000 nM (inactive)
GI50 (LOX IMVI): > 100 µM (inactive)
GI50 (M14): > 100000 nM (inactive)
GI50 (MCF7): > 100 µM (inactive)
GI50 (MDA-MB-231): > 100000 nM (inactive)
GI50 (MDA-MB-435): > 100000 nM (inactive)
GI50 (MDA-N): > 100000 nM (inactive)
GI50 (MOLT-4): > 100 µM (inactive)
GI50 (Malme-3M): > 100000 nM (inactive)
GI50 (NCI-H226): > 100000 nM (inactive)
GI50 (NCI-H23): > 100 µM (inactive)
GI50 (NCI/ADR-RES): > 100000 nM (inactive)
GI50 (OVCAR-3): > 100000 nM (inactive)
GI50 (OVCAR-4): > 100000 nM (inactive)
GI50 (OVCAR-5): > 100000 nM (inactive)
GI50 (OVCAR-8): > 100000 nM (inactive)
GI50 (PC-3): > 100000 nM (inactive)
GI50 (RPMI-8226): > 100000 nM (inactive)
GI50 (SF-268): > 100 µM (inactive)
GI50 (SF-295): > 100000 nM (inactive)
GI50 (SK-MEL-28): > 100 µM (inactive)
GI50 (SK-MEL-2): > 100000 nM (inactive)
GI50 (SK-MEL-5): > 100000 nM (inactive)
GI50 (SK-OV-3): > 100000 nM (inactive)
GI50 (SN12C): > 100 µM (inactive)
GI50 (SNB-19): > 100000 nM (inactive)
GI50 (SNB-75): > 100 µM (inactive)
GI50 (SR): > 100000 nM (inactive)
GI50 (SW-620): > 100 µM (inactive)
GI50 (TK-10): > 100000 nM (inactive)
GI50 (U-251): > 100 µM (inactive)
GI50 (UACC-257): > 100000 nM (inactive)
GI50 (UACC-62): > 100000 nM (inactive)
GI50 (UO-31): > 100000 nM (inactive)

Cc1c2oc3c(C)ccc(C(=O)NC4C(=O)NC(C(C)C)C(=O)N5CCCC5C(=O)N(C)CC(=O)N(C)C(C(C)O)C(=O)OC4C)c3nc-2c(C(=O)NC2C(=O)NC(C(C)C)C(=O)N3CCCC3C(=O)N(C)CC(=O)N(C)C(C(C)O)C(=O)OC2C)c(N)c1=O (stereo not given) (I: TVP[Sar][NMeT] / II: TVP[Sar][NMeT]; ester I:1-I:C, II:1-II:C; linker I:N-II:N via Actinocin(9to1); configuration not given here)
GI50 (ACHN): 1690 nM (inactive)
GI50 (CCRF-CEM): 1.59 µM (inactive) and 957 nM (active)
GI50 (HCT-116): 556 nM (active) and 472 nM (active)
GI50 (HOP-62): 1.18 µM (inactive) and 792 nM (active)
GI50 (HOP-92): > 1 µM (active) and 1.9 µM (inactive)
GI50 (Hs-578T): 1460 nM (inactive)
GI50 (IGROV-1): 512 nM (active) and 914 nM (active)
GI50 (K562): 586 nM (active)
GI50 (LOX IMVI): 565 nM (active) and 557 nM (active)
GI50 (MCF7): 445 nM (active) and 671 nM (active)
GI50 (MDA-N): 1680 nM (inactive)
GI50 (MOLT-4): > 1 µM (active) and 875 nM (active)
GI50 (NCI-H23): > 1 µM (active) and 1.41 µM (inactive)
GI50 (NCI-H460): 470 nM (active) and 401 nM (active)
GI50 (NCI-H522): 173 nM (active) and 255 nM (active)
GI50 (OVCAR-8): 1100 nM (active)
GI50 (RPMI-8226): 773 nM (active)
GI50 (RXF 393): 453 nM (active) and 820 nM (active)
GI50 (SF-268): > 1 µM (active) and 1.63 µM (inactive)
GI50 (SF-539): 518 nM (active) and 533 nM (active)
GI50 (SK-MEL-28): 583 nM (active) and 769 nM (active)
GI50 (SK-MEL-2): 719 nM (active)
GI50 (SN12C): > 1 µM (active) and 1.26 µM (inactive)
GI50 (SNB-75): 313 nM (active) and 186 nM (active)
GI50 (SW-620): > 1 µM (active) and 834 nM (active)
GI50 (U-251): 495 nM (active) and 369 nM (active)
GI50 (UACC-62): 478 nM (active)

COc1cc([C@@H]2c3cc4c(cc3C[C@H]3COC(=O)[C@@H]32)OCO4)cc2c1OCO2 [AUSTROBAILIGNAN 1]
GI50 (786-0): < 10 nM (active)
GI50 (A498): < 10 nM (active)
GI50 (A549): < 10 nM (active)
GI50 (ACHN): < 12.1 nM (active)
GI50 (CAKI-1): < 10 nM (active)
GI50 (CCRF-CEM): 0.664 µM (active)
GI50 (COLO 205): 10.8 nM (active)
GI50 (DU-145): < 10 nM (active)
GI50 (EKVX): < 10 nM (active)
GI50 (HCC 2998): < 10 nM (active)
GI50 (HCT-116): < 0.01 µM (active)
GI50 (HCT-15): < 10 nM
GI50 (HOP-62): < 0.01 µM (active)
GI50 (HOP-92): < 10 nM (active)
GI50 (HT-29): < 10 nM (active)
GI50 (Hs-578T): < 10 nM (active)
GI50 (IGROV-1): < 0.01 µM (active)
GI50 (KM12): 132 nM (active)
GI50 (LOX IMVI): < 0.01 µM (active)
GI50 (M14): < 10 nM (active)
GI50 (MCF7): < 0.01 µM (active)
GI50 (MDA-MB-231): < 10 nM (active)
GI50 (MDA-MB-435): < 10 nM (active)
GI50 (MDA-N): < 10 nM (active)
GI50 (MOLT-4): < 0.01 µM (active)
GI50 (Malme-3M): < 10 nM (active)
GI50 (NCI-H226): < 10 nM (active)
GI50 (NCI-H23): < 0.01 µM (active)
GI50 (NCI-H460): < 10 nM (active)
GI50 (NCI-H522): < 10 nM (active)
GI50 (NCI/ADR-RES): < 10 nM (active)
GI50 (OVCAR-3): < 10 nM (active)
GI50 (OVCAR-4): 11400 nM (inactive)
GI50 (OVCAR-5): < 10 nM (active)
GI50 (OVCAR-8): < 10 nM (active)
GI50 (PC-3): < 10 nM (active)
GI50 (RPMI-8226): < 10 nM (active)
GI50 (RXF 393): < 10 nM (active)
GI50 (SF-268): < 0.01 µM (active)
GI50 (SF-295): < 10 nM (active)
GI50 (SF-539): < 10 nM (active)
GI50 (SK-MEL-28): < 0.01 µM (active)
GI50 (SK-MEL-2): < 10 nM (active)
GI50 (SK-MEL-5): < 10 nM (active)
GI50 (SK-OV-3): < 10 nM (active)
GI50 (SN12C): < 0.01 µM (active)
GI50 (SNB-19): < 10 nM (active)
GI50 (SNB-75): 0.0278 µM (active)
GI50 (SR): < 10 nM (active)
GI50 (SW-620): < 0.01 µM (active)
GI50 (TK-10): 1990 nM (inactive)
GI50 (U-251): < 0.01 µM (active)
GI50 (UACC-62): < 10 nM (active)
GI50 (UO-31): < 10 nM (active)

— ChEMBL document CHEMBL1201862, “PubChem BioAssay data set” (2004)
